Assay results as given in patent US20250368666A1, “INDAZOLE COMPOUNDS” (TYRA BIOSCIENCES, INC., priority 2022, published 2025).
Where two headings read alike, the source gives them in different places.

Key:
[1] = tested on: KG-1 cell line (FGFR 1-fusion); test: Cancer cell line cell viability assay (Cell Titer-Glo), 72 hr; type: cell-based; conditions: Homo sapiens, KG-1, KG-1 cell line (FGFR1-fusion)
Description: (§1) Experimental Purpose: To detect the change of intracellular ATP by Cell Titer-Glo® and to evaluate the inhibitory effect of the compounds on cancer cell lines by determining the in vitro IC50 value of the compounds.
(§2) Cell Titer-Glo® 2.0 Luminescent cell viability assay reagent was purchased from Promega (Madison, WI). KG-1, KATO-III, and MDA-MB-453 cell lines were purchased from American Type Culture Collection (Manassas, VA). RT112/84 cell line was purchased from Millipore-Sigma (St. Louis, MO). HuH7 cells were purchased from Seikisui Xenotech (Kansas City, KS). RT112/84 and MDA-MB-453 cells were cultured in RPMI1640 media supplemented with 10% fetal bovine serum. KG-1 and KATO-III cell lines were cultured in IMDM media supplemented with 20% FBS. HuH7 cells were cultured in IMDM media supplemented with 10% FBS. Cultures were maintained at 37° C. in a humidified atmosphere of 5% CO2 and 95% air.
(§3) Cell Viability Assay Procedure: Cells were plated in 96-well clear bottom/white plates (Corning #3903) at a range of densities depending on the optimal assay window (5,000-20,000 cells/well in […] of media), incubated overnight. The next day, test compound DMSO stock solutions were made at 10 mM and […] final concentration. Compounds were then added to cells in a 9-dose, 4-fold dilution series starting at 3 μM with an HP 300e Digital Dispenser (each dose was applied in triplicate). DMSO was backfilled to each well up to 301 nL total volume of test compound+DMSO, and a total of 301 nL DMSO was added to a control/no test compound well in triplicate. The cells in cell culture plates were incubated with the compounds at 37° C. and 5% CO2 for 72 hours-120 hours depending on the cell line. Then 50 μl of Cell Titer Glo 2.0 reagent was added to each well of the cell culture plates. The contents were covered from light and mixed on an orbital shaker at room temperature for minimum of 10 min. Luminescence was recorded by a Clariostar Plus Microplate Reader (BMG Labtech, Cary, NC). Cells were assessed as a percentage of DMSO only treated control cells. Curves were plotted and IC50 values were calculated using the GraphPad Prism 9 program based on a sigmoidal dose-response equation (log (inhibitor) vs. response—Variable slope, 4-parameter).

[2] = tested on: RT112/84 cell line (FGFR3-fusion); test: as above; type: cell-based; conditions: Homo sapiens, RT112/84, RT112/84 cell line (FGFR3-fusion)
Description: as §1, §2, §3

[3] = target: T1, FGFR3 (Homo sapiens, UniProt P22607); test: Kinase binding assay (kinase-tagged T7 phage, affinity beads, qPCR), Kd; conditions: read-out: FGFR3 (Kd nM)
T1 construct: made in house; host or cells: E. coli (BL21-derived), T7 phage
How it was run: (§4)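 Competition binding; kinase-tagged T7 phage lysate vs immobilised biotinylated ligand on streptavidin beads, 0.9% DMSO final. 11-pt 3-fold dilutions, 3 DMSO controls. qPCR of eluted kinase; Kd by Hill fit, slope −1.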

[4] = target: T2, FGFR1 (Homo sapiens, UniProt P11362); test: as above; conditions: read-out: FGFR1 (Kd nM)
T2 construct: made in house; host or cells: E. coli (BL21-derived), T7 phage
How it was run: as §4

[5] = tested on: KATO-III cell line (FGFR2 amplification); test: Cancer cell line cell viability assay (Cell Titer-Glo), 72 hr; type: cell-based; conditions: Homo sapiens, KATO III
Description: as §1, §2, §3

[6] = target: T3, FGFR2 (Homo sapiens, UniProt P21802); test: Kinase binding assay (kinase-tagged T7 phage, affinity beads, qPCR), Kd; conditions: read-out: FGFR2 (Kd nM)
T3 construct: made in house; host or cells: E. coli (BL21-derived), T7 phage
How it was run: as §4

[7] = target: T4, FGFR4 (Homo sapiens, UniProt P22455); test: as above; conditions: read-out: FGFR4 (Kd nM)
T4 construct: made in house; host or cells: E. coli (BL21-derived), T7 phage
How it was run: as §4

[8] = target: T5, FGFR3 (V555M) (Homo sapiens, UniProt P22607, V555M); test: as above; conditions: V555M mutant; read-out: FGFR3 (V555M) (Kd nM)
T5 construct: made in house; host or cells: E. coli (BL21-derived), T7 phage
How it was run: as §4

[9] = kinase binding assay, 11-point 3-fold dilution series

T1 sequence (P22607 23-806): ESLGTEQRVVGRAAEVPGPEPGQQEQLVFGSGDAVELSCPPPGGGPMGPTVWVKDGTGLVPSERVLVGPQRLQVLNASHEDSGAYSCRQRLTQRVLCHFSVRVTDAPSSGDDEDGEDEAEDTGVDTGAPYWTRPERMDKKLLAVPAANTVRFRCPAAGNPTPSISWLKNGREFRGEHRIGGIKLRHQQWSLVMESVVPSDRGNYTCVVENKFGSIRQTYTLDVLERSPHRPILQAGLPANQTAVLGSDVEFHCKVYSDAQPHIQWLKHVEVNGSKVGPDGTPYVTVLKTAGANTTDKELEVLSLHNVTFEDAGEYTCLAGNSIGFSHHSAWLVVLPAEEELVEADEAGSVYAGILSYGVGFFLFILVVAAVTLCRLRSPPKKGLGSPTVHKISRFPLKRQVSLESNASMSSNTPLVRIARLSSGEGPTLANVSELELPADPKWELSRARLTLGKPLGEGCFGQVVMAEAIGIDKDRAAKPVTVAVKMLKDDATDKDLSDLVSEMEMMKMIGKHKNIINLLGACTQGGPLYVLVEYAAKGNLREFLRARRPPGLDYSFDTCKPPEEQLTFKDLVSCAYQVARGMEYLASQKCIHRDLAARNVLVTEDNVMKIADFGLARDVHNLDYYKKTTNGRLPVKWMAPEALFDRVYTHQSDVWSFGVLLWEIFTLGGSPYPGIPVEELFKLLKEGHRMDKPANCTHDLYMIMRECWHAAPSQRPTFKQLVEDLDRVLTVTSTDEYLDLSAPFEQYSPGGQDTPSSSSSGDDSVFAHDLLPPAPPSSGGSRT
T5 sequence (P22607 23-806 V555M): as the sequence (P22607 23-806) above, with V533M counted along it
T4 sequence (P22455 22-802): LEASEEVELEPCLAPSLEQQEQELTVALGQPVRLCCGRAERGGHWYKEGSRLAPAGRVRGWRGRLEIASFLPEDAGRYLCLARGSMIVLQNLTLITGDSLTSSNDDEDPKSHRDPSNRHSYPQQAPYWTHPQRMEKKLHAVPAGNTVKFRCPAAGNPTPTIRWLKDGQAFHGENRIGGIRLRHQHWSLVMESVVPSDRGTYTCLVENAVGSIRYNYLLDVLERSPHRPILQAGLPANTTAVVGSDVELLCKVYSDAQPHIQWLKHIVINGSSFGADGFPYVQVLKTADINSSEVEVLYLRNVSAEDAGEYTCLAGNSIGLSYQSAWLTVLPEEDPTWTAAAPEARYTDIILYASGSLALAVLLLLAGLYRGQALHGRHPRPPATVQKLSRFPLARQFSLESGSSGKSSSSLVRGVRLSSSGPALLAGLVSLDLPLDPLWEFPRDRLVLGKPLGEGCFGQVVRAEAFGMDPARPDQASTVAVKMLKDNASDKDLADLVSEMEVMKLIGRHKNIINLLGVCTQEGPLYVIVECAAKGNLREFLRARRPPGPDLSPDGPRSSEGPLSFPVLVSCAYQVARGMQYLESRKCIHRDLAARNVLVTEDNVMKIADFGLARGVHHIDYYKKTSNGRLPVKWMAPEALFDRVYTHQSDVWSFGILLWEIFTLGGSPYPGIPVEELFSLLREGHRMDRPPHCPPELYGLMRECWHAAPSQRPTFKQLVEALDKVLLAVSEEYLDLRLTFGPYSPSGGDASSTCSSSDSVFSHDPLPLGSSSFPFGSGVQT
T3 sequence (P21802 22-821): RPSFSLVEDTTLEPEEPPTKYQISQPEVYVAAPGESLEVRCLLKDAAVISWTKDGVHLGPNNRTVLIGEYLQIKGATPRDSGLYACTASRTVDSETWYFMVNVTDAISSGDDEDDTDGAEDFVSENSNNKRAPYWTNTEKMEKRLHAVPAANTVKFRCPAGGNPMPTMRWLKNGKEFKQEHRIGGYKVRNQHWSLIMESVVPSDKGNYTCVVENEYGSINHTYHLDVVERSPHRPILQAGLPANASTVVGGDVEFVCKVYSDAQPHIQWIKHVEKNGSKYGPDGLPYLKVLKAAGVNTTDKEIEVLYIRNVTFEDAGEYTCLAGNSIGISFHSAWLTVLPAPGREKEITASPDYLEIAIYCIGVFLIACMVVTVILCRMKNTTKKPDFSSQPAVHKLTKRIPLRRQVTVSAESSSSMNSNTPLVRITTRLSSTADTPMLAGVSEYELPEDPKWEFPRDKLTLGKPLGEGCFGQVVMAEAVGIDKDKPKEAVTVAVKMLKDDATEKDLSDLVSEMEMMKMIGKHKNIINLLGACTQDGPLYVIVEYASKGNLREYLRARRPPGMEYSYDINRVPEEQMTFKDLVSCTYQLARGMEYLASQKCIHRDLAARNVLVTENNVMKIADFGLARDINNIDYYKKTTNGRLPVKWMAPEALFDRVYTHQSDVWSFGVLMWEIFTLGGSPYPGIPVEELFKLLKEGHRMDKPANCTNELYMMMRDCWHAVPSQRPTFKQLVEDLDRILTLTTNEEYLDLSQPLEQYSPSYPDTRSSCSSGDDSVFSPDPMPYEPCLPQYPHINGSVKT
T2 sequence (P11362 22-822): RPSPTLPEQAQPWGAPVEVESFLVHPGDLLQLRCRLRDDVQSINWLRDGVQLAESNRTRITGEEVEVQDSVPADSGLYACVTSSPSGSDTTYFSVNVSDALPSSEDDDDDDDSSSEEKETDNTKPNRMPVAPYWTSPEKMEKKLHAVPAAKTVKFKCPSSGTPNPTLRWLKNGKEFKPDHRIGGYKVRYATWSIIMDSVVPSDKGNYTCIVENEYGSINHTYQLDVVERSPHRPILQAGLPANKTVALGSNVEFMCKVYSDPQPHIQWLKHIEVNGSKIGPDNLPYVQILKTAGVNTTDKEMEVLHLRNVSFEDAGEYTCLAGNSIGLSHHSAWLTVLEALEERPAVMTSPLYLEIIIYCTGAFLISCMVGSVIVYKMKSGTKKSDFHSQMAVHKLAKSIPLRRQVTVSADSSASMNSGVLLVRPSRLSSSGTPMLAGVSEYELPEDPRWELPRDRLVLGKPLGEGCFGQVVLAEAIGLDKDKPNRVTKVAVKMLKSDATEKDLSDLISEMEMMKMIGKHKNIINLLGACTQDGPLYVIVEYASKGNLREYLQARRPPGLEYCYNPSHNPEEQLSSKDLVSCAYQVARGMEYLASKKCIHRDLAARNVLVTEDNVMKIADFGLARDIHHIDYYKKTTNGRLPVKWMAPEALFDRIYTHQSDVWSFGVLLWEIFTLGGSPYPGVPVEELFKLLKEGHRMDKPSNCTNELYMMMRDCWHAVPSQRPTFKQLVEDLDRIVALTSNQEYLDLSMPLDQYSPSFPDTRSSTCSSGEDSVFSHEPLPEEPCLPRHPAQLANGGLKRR

Row | IC50 [1] | IC50 [2] | Kd [3] | Kd [4] | IC50 [5] | Kd [3, 9] | Kd [4, 9] | Kd [6] | Kd [7] | Kd [8] | SMILES
1 | 50 to 200 nM | 0.1 to 50 nM | 1 to 50 nM | 1 to 50 nM |  |  |  |  |  |  | C[C@@H](Oc1ccc2[nH]nc(-c3ccc(N4CC(C)(NCCF)C4)nn3)c2c1)c1c(Cl)cncc1Cl [Example 309, (R)-1-(6-(5-(1-(3,5-dichloropyridin-4-yl)ethoxy)-1H-indazol-3-yl)pyridazin-3-yl)-N-(2-fluoroethyl)-3-methylazetidin-3-amine]
2 | 200 to 1000 nM | 0.1 to 50 nM | 1 to 50 nM | 1 to 50 nM | 50 to 200 nM |  |  |  |  |  | CC(C)OC(=O)C1(N)CN(c2ccc(-c3n[nH]c4ccc(O[C@H](C)c5c(Cl)cncc5Cl)cc34)nn2)C1 [Example 308, (R)-isopropyl 3-amino-1-(6-(5-(1-(3,5-dichloropyridin-4-yl)ethoxy)-1H-indazol-3-yl)pyridazin-3-yl)azetidine-3-carboxylate]
3 | 50 to 200 nM | 0.1 to 50 nM | 1 to 50 nM | 1 to 50 nM | 0.1 to 50 nM |  |  |  |  |  | COc1cc2[nH]nc(-c3cnc(N4CC(C)(N)C4)c(F)c3)c2cc1O[C@H](C)c1c(Cl)cncc1Cl [Example 304, (R)-1-(5-(5-(1-(3,5-dichloropyridin-4-yl)ethoxy)-6-methoxy-1H-indazol-3-yl)-3-fluoropyridin-2-yl)-3-methylazetidin-3-amine]
4 | 50 to 200 nM | 0.1 to 50 nM |  |  | 0.1 to 50 nM | 1 to 50 nM | 1 to 50 nM |  |  |  | C[C@@H](Oc1ccc2[nH]nc(-c3ccc(N4CC(N)(c5ccnn5C)C4)nn3)c2c1)c1c(Cl)cncc1Cl [Example 391, (R)-1-(6-(5-(1-(3,5-dichloropyridin-4-yl)ethoxy)-1H-indazol-3-yl)pyridazin-3-yl)-3-(1-methyl-1H-pyrazol-5-yl)azetidin-3-amine]
5 | 50 to 200 nM | 0.1 to 50 nM |  |  | 0.1 to 50 nM | 1 to 50 nM | 1 to 50 nM |  |  |  | CCOCC1(N)CN(c2ncc(-c3n[nH]c4ccc(O[C@H](C)c5c(Cl)cncc5Cl)cc34)cc2F)C1 [Example 390, 1-[5-[5-[(1R)-1-(3,5-dichloro-4-pyridyl)ethoxy]-1H-indazol-3-yl]-3-fluoro-2-pyridyl]-3-(ethoxymethyl)azeti-din-3-amine]
6 | 50 to 200 nM | 0.1 to 50 nM | 1 to 50 nM | 1 to 50 nM | 50 to 200 nM |  |  |  |  |  | CCOCC1(N)CN(c2ccc(-c3n[nH]c4ccc(O[C@H](C)c5c(Cl)cncc5Cl)cc34)nn2)C1 [Example 316, (R)-1-(6-(5-(1-(3,5-dichloropyridin-4-yl)ethoxy)-1H-indazol-3-yl)pyridazin-3-yl)-3-(ethoxymethyl)azeti-din-3-amine]
7 | 50 to 200 nM | 0.1 to 50 nM | 1 to 50 nM | 1 to 50 nM | 0.1 to 50 nM |  |  |  |  |  | C[C@@H](Oc1ccc2[nH]nc(-c3cnc(N4CC(N)(CCC#N)C4)c(F)c3)c2c1)c1c(Cl)cncc1Cl [Example 298, (R)-3-(3-amino-1-(5-(5-(1-(3,5-dichloropyridin-4-yl)ethoxy)-1H-indazol-3-yl)-3-fluoropyridin-2-yl)azetidin-3-yl)propanenitrile]
8 | 200 to 1000 nM | 0.1 to 50 nM | 1 to 50 nM | 1 to 50 nM | 50 to 200 nM |  |  |  |  |  | C=CCNC1(CC#N)CN(c2ncc(-c3n[nH]c4ccc(O[C@H](C)c5c(Cl)cncc5Cl)cc34)cc2F)C1 [Example 248, 2-[3-(allylamino)-1-[5-[5-[(1R)-1-(3,5-dichloro-4-pyridyl)ethoxy]-1H-indazol-3-yl]-3-fluoro-2-pyridyl]azetidin-3-yl]acetonitrile]
9 | 200 to 1000 nM | 0.1 to 50 nM |  |  | 50 to 200 nM | 1 to 50 nM | 1 to 50 nM |  |  |  | C[C@@H](Oc1ccc2[nH]nc(-c3ccc(N4CC(N)(c5ccn(C)n5)C4)nn3)c2c1)c1c(Cl)cncc1Cl [Example 388, (R)-1-(6-(5-(1-(3,5-dichloropyridin-4-yl)ethoxy)-1H-indazol-3-yl)pyridazin-3-yl)-3-(1-methyl-1H-pyrazol-3-yl)azetidin-3-amine]
10 | 200 to 1000 nM | 0.1 to 50 nM | 1 to 50 nM | 1 to 50 nM | 50 to 200 nM |  |  |  |  |  | C[C@@H](Oc1ccc2[nH]nc(-c3ccc(N4CC(C)(NCC(=O)N(C)C)C4)nn3)c2c1)c1c(Cl)cncc1Cl [Example 314, (R)-2-((1-(6-(5-(1-(3,5-dichloropyridin-4-yl)ethoxy)-1H-indazol-3-yl)pyridazin-3-yl)-3-methylazetidin-3-yl)amino)-N,N-dimethylacetamide]
11 | 50 to 200 nM | 0.1 to 50 nM | 1 to 50 nM | 1 to 50 nM |  |  |  |  |  |  | C[C@@H](Oc1ccc2[nH]nc(-c3cnc(N4CC(C)(NCCC#N)C4)c(F)c3)c2c1)c1c(Cl)cncc1Cl [Example 310, (R)-3-((1-(5-(5-(1-(3,5-dichloropyridin-4-yl)ethoxy)-1H-indazol-3-yl)-3-fluoropyridin-2-yl)-3-methylazetidin-3-yl)amino)propane-nitrile]
12 |  | 0.1 to 50 nM | 1 to 50 nM | 1 to 50 nM | 50 to 200 nM |  |  |  |  |  | CCCC1(N)CN(c2ccc(-c3n[nH]c4ccc(O[C@H](C)c5c(Cl)cncc5Cl)cc34)nn2)C1 [Example 295, (R)-1-(6-(5-(1-(3,5-dichloropyridin-4-yl)ethoxy)-1H-indazol-3-yl)pyridazin-3-yl)-3-propylazetidin-3-amine]
13 |  |  | 1 to 50 nM | 50 to 300 nM |  |  |  | 50 to 300 nM | 1 to 50 nM | 1 to 50 nM | C[C@@H](Oc1ccc2[nH]nc(-c3cnc(N4CC(C)(NC5CCC5)C4)c(C#N)c3)c2c1)c1c(Cl)cncc1Cl [Example 2, (R)-2-(3-(cyclobutylamino)-3-methylazetidin-1-yl)-5-(5-(1-(3,5-dichloropyridin-4-yl)ethoxy)-1H-indazol-3-yl)nicotinonitrile]
14 |  |  | 1 to 50 nM | 1 to 50 nM |  |  |  | 1 to 50 nM | 1 to 50 nM | 1 to 50 nM | C[C@@H](O)CNC1(C)CN(c2ncc(-c3n[nH]c4ccc(O[C@H](C)c5c(Cl)cncc5Cl)cc34)cc2F)C1 [Example 104, (R)-1-((1-(5-(5-((R)-1-(3,5-dichloropyridin-4-yl)ethoxy)-1H-indazol-3-yl)-3-fluoropyridin-2-yl)-3-methylazetidin-3-yl)amino)propan-2-ol]
15 |  |  | 1 to 50 nM | 1 to 50 nM |  |  |  | 1 to 50 nM | 1 to 50 nM | 1 to 50 nM | C[C@@H](Oc1ccc2[nH]nc(-c3cnc(N4CC(C)(C(=O)NCCO)C4)c(F)c3)c2c1)c1c(Cl)cncc1Cl [Example 162, 1-[5-[5-[(1R)-1-(3,5-dichloro-4-pyridyl)ethoxy]-1H-indazol-3-yl]-3-fluoro-2-pyridyl]-N-(2-hydroxyethyl)-3-methyl-azetidine-3-carboxamide]
16 |  |  | 1 to 50 nM | 1 to 50 nM |  |  |  | 1 to 50 nM | 1 to 50 nM | 1 to 50 nM | C[C@@H](Oc1cc2c(-c3cnc(N4CC(C)(CP(C)(C)=O)C4)c(F)c3)n[nH]c2cc1F)c1c(Cl)cncc1Cl [Example 193, (R)-((1-(5-(5-(1-(3,5-dichloro-pyridin-4-yl)ethoxy)-6-fluoro-1H-indazol-3-yl)-3-fluoropyridin-2-yl)-3-methylazetidin-3-yl)methyl)dimethyl-phosphine oxide]
17 |  |  | > 1000 nM | > 1000 nM |  |  |  | > 1000 nM | 1 to 50 nM | 300 to 1000 nM | C[C@@H](Oc1ccc2[nH]nc(-c3cnc(N4CC(C)(NCCO)C4)c(C#N)c3)c2c1F)c1c(Cl)cncc1Cl [Example 324, (R)-5-(5-(1-(3,5-dichloropyridin-4-yl)ethoxy)-4-fluoro-1H-indazol-3-yl)-2-(3-((2-hydroxy-ethyl)amino)-3-methylazetidin-1-yl)nicotinonitrile]
